Measured values as given in PubChem BioAssay AID2060348 (Molecular Pharmacology Branch, DTP, NCI, 2025).
Where “and” joins values, the source holds several entries; their conditions need not be identical. Equal values may be shown once.

Test system: 885724-159-R-J1-PDC spheroids viability
Experiment: Anticancer human tumor 885724-159-R-J1-PDC patient-derived pancreatic adenocarcinoma cell line growth inhibition [TAK]
Settings: spheroids with HUVEC and MSC; for viability, T/C: stronger effect = lower value; for IC50: curve of compound
Text: Combinatorial screen of targeted agents with TAK-243 and ipatasertib in multi-cell type tumor spheroids
A high-throughput screen of multi-cell type tumor spheroids was designed to identify active combinations of targeted small molecules and TAK-243 or ipatasertib. Complex spheroids include a stromal component modeled by human endothelial cells (HUVEC) and fibroblasts modeled by human mesenchymal stem cells (MSCs). The concentration ranges selected for each drug and investigational agent were based upon clinically achievable concentrations if the clinical Cmax of the agent was known.
Compounds. The drugs and investigational agents: TAK-243 (785004), ipatasertib (767898), everolimus (733504), selumetinib (741078), bortezomib (756655), trametinib (758246), ixazomib (758254), vemurafenib (761431), dabrafenib (764134), sapanisertib (764658), alpelisib (765974), and copanlisib (816437), were obtained from the National Cancer Institute (NCI) Developmental Therapeutics Program Chemical Repository. The FDA-approved anticancer drug set is available from the NCI Developmental Therapeutics Program. […] The stock solutions were prepared in dimethyl sulfoxide (DMSO, Sigma-Aldrich, St. Louis, MO, cat. D2650) at 800-fold the tested concentration and stored at -70 degrees C prior to their use. All drugs and investigational agents were tested over a range starting from a high concentration at or near the clinical Cmax and decreasing in half-log increments. If the clinical Cmax for an agent had not been determined, the highest concentration tested was 10 microM.
NCI60 Cell Culture. NCI60 cell lines were obtained from the NCI Developmental Therapeutics Program Tumor Repository. For each lot of cells, the Repository performed Applied Biosystems AmpFLSTR Identifiler testing with PCR amplification to confirm consistency with the published Identifier STR profile for each cell line. Cells were kept in continuous culture for no more than 20 passages. The optimal seeding densities for each of the cell lines at each time point assessed were determined prior to performing the concentration response studies. Briefly, the NCI60 human tumor lines were grown as monolayers in RPMI 1640 medium supplemented with 10% FBS and 2 mmol/L L-glutamine.
An additional 2 lines were from the NCI60 cell line panel including melanomas, MALME-3M and SK-MEL-2. Pooled donor human umbilical vein endothelial cells (HUVEC, Lonza, cat. CC-2519) and human mesenchymal stem cells (hMSC, Lonza, cat. PT-2501) were purchased from Lonza (Walkersville, MD).
PDMR cell lines were grown in complete medium (DC medium): Dulbecco's modified Eagle's medium (DMEM)/F12 supplemented with 5% fetal bovine serum (FBS), 2 mM L-glutamine, 100 U/mL penicillin and 100 µg/ml streptomycin, 0.4 µg/ml hydrocortisone, 10 ng/ml epidermal growth factor (EGF) recombinant human protein, 24 µg/mL adenine, and 0.1 mg/mL primocin. During culture from frozen stock vials, PDMR cells were cultured in the same medium containing 10 µM Y-27632 (see Table 3). The PDCs were cultured in complete DMEM/F12 media without 10 microM Y-27632 dihydrochloride for at least two passages prior to the screen. The pooled donor HUVEC and hMSC were cultured in endothelial cell growth medium 2 (PromoCell, Heidelberg, Germany, cat. C-22011) and mesenchymal stem cell growth medium 2 (PromoCell, cat. C-28009), respectively. For all experiments, HUVEC and hMSC were used at passages </=5.
For the pre-screen, cell seeding densities were determined from a titration spanning the range from 5,000 to 313 cells per well. The mct-spheroids including 60% malignant cells, 25% HUVEC and 15% MSC dispensed as a mixture into U-bottom Ultra-Low Attachment 384-well plates (Corning, NY)
High-throughput Drug Combination Screening.
Prior to their inoculation into 384-well plates, malignant cells, HUVEC, and hMSC were removed from T flasks using TrypLE express (Thermo Fisher Scientific, cat. 12605036) and harvested by centrifugation for 5 min at 233 x g. […]
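Also: spheroids exposed to drugs for seven days.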
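For viability, T/C in this document: 100% = DMSO vehicle control viability.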

| SMILES | IC50 | viability, T/C (compound 0.0316 µM) | viability, T/C (compound 0.1 µM) | viability, T/C (compound 0.316 µM) | viability, T/C (compound 1 µM) | viability, T/C (compound 0.000316 µM) | viability, T/C (compound 0.001 µM) | viability, T/C (compound 0.00316 µM) | viability, T/C (compound 0.01 µM) | also measured |
| --- | --- | --- | --- | --- | --- | --- | --- | --- | --- | --- |
| CC(C)(C)c1nc(-c2cccc(NS(=O)(=O)c3c(F)cccc3F)c2F)c(-c2ccnc(N)n2)s1 | > 10000 nM | 179% and 172% | 262% and 233% | 321% and 254% | 332% and 269% |  |  |  |  | viability, T/C (compound 3.16 µM): 308% and 241%; viability, T/C (compound 10 µM): 200% and 176% |
| CC(C)CC(NC(=O)CNC(=O)c1cc(Cl)ccc1Cl)B1OC(=O)CC(CC(=O)O)(C(=O)O)O1 (stereo not given) | 19.1 nM and 18.8 nM | 19.3% and 15.8% | 1.47% and 1.1% |  |  | 98.6% and 104% | 101% and 96.8% | 99.5% and 103% | 89.3% and 91.4% |  |
| CC(C)NCC(C(=O)N1CCN(c2ncnc3c2C(C)CC3O)CC1)c1ccc(Cl)cc1 (stereo not given) |  |  |  |  |  |  |  |  |  | viability, T/C (compound 0.3 µM): 64.1% [middle of 10 runs]; viability, T/C (compound 0.949 µM): 60.5% [middle of 10 runs]; viability, T/C (compound 3 µM): 55.2% [middle of 10 runs]; viability, T/C (compound 9.49 µM): 47.5% [middle of 10 runs]; viability, T/C (compound 30 µM): 32.8% [middle of 10 runs] |
| CCCS(=O)(=O)Nc1ccc(F)c(C(=O)c2c[nH]c3ncc(-c4ccc(Cl)cc4)cc23)c1F | > 100000 nM |  |  | 145% and 137% | 179% and 154% |  |  |  |  | viability, T/C (compound 3.16 µM): 187% and 177%; viability, T/C (compound 10 µM): 96.5% and 86.4%; viability, T/C (compound 31.6 µM): 159% and 132%; viability, T/C (compound 100 µM): 150% and 129% |
| Cc1nc(NC(=O)N2CCCC2C(N)=O)sc1-c1ccnc(C(C)(C)C(F)(F)F)c1 (stereo not given) | 1590 nM and 1990 nM | 100% and 108% | 91.1% and 88.8% | 72.9% and 70.5% | 55.2% and 64.1% |  |  |  |  | viability, T/C (compound 3.16 µM): 42.3% and 43.4%; viability, T/C (compound 10 µM): 26.8% and 29.2% |
| Cn1cnc2c(F)c(Nc3ccc(Br)cc3Cl)c(C(=O)NOCCO)cc21 | 40.9 nM |  |  |  |  |  |  |  |  | viability, T/C (compound 0.00949 µM): 70.7% and 70.3%; viability, T/C (compound 0.03 µM): 53.1% and 54.5%; viability, T/C (compound 0.0949 µM): 38.9% and 38.3%; viability, T/C (compound 0.3 µM): 34.6% and 32.9%; viability, T/C (compound 0.949 µM): 28.6% and 27.2%; viability, T/C (compound 3 µM): 21.2% and 21.8% |

Second part, led by results:

| IC50 | SMILES | viability, T/C (compound 0.0316 µM) | viability, T/C (compound 0.1 µM) | viability, T/C (compound 0.316 µM) | viability, T/C (compound 1 µM) | viability, T/C (compound 0.000316 µM) | viability, T/C (compound 0.001 µM) | viability, T/C (compound 0.00316 µM) | viability, T/C (compound 0.01 µM) | also measured |
| --- | --- | --- | --- | --- | --- | --- | --- | --- | --- | --- |
| 1.38 nM and 1.18 nM | CC(=O)Nc1cccc(-n2c(=O)n(C3CC3)c(=O)c3c(Nc4ccc(I)cc4F)n(C)c(=O)c(C)c32)c1 |  |  |  |  |  |  |  |  | viability, T/C (compound 94.9 pM): 89.3% and 117%; viability, T/C (compound 0.0003 µM): 86.7% and 71.2%; viability, T/C (compound 0.000949 µM): 53.9% and 55.8%; viability, T/C (compound 0.003 µM): 37.1% and 40.6%; viability, T/C (compound 0.00949 µM): 26.4% and 30.2%; viability, T/C (compound 0.03 µM): 20.4% |
| 4.63 nM and 4.18 nM | CC(C)CC(NC(=O)C(Cc1ccccc1)NC(=O)c1cnccn1)B(O)O (stereo not given) |  |  |  |  | 104% and 93.8% | 99.3% and 87.3% | 74.5% and 67.2% | 1.18% and 1.87% | viability, T/C (compound 31.6 pM): 114% and 102%; viability, T/C (compound 0.0001 µM): 105% and 100% |
| 52.6 nM and 52.9 nM | CC(C)n1nc(-c2ccc3oc(N)nc3c2)c2c(N)ncnc21 | 54.2% and 51.1% | 46.1% and 46% |  |  | 104% and 108% | 103% and 95.1% | 93.3% and 83.8% | 67.5% and 70.2% |  |
| > 100 nM | COC1CC2CCC(C)C(O)(O2)C(=O)C(=O)N2CCCCC2C(=O)OC(C(C)CC2CCC(OCCO)C(OC)C2)CC(=O)C(C)C=C(C)C(O)C(OC)C(=O)C(C)CC(C)C=CC=CC=C1C (stereo not given) | 70.2% and 70.8% | 67.6% and 62.2% |  |  | 93.8% and 110% | 91.7% and 92% | 79.7% and 77% | 69.8% and 72.2% |  |
| 26.7 nM and 23.3 nM | COc1c(OCCCN2CCOCC2)ccc2c3n(c(=NC(=O)c4cnc(N)nc4)nc12)CCN3 | 47.1% and 47.6% | 27.9% and 22.6% | 14% and 13.8% | 12.1% and 12% |  |  | 92.1% and 84.8% | 69.9% and 64.1% |  |
